Columns and labels:
FGFR = experiment: Tissue biomarkers in skin and tumor biopsies; assay type: in vivo, human
[1] = test system: advanced solid tumors harboring FGFR1–3 gene alterations; experiment: Tumor response according to RECIST 1.1

Debio 1347
DUSP6 mRNA expression change in tumor biopsies (FGFR; on treatment (day 8), 14 paired biopsies): a decrease in DUSP6 was observed
Change of phosphorylated markers (pERK, pFRS2, pS6) in skin biopsies (FGFR; predose to day 8, 31 biopsy pairs, immunohistochemistry): no clear decrease
Patients with DUSP6 decrease >50% who achieved a PR (FGFR; tumor biopsies): two out of three
Disease stabilization among patients with confirmed FGFR fusions ([1]; 10 patients, doses ≥60 mg/day): 5 patients
PRs among patients with confirmed FGFR fusions ([1]; 10 patients, doses ≥60 mg/day): 3 patients
Patients with stable disease as best objective response ([1]; 57 evaluable): 16 patients
Patients with stable disease showing reduced target lesion size (tumor size regressions of ≤30%) ([1]; 57 evaluable): 10 patients
Response per independent central radiological review ([1]; one patient with cholangiocarcinoma, 110 mg, changed from partial): confirmed complete response
Disease control rate (DCR) ([1]; overall): 39%
Disease control rate (DCR) ([1]; patients with confirmed FGFR fusions, ≥60 mg/day): 80%
Median treatment duration in patients with disease control ([1]; range 24–47): 34 weeks

— PMC9014845 (Clinical cancer research : an official journal of the …, 2019)
